How the values were obtained:
female BALB/c mice = assay: LPS-induced fatigue model, daily activity counts; type: in vivo; settings: single intraperitoneal dose of 2.5 mg/kg lipopolysaccharide vs saline control; FIG. 1
Method: For the LPS-induced fatigue model shown in FIG. 1, […], female BALB/c mice were obtained from Charles River Laboratories (Wilmington, Mass.). The mice were randomized into 2 groups of 10 prior to treatment. Animals were housed 5 per cage in micro-isolators and allowed to acclimatize for 4 days prior to dosing. Animal were given food and water ad libitum with a 12 hour light/12 hour dark schedule.
Animals in the control group were initially injected intraperitoneally with saline. Animals in the LPS group were injected intraperitoneally with a single dose of 2.5 mg/kg lipopolysaccharide on dayl.

BALB/c mice = assay: etoposide-induced fatigue model (CTRF animal model), activity, weight and blood chemistry; type: in vivo
Method: An animal model has been developed to screen for drugs which are efficacious in the treatment, alleviation and/or prevention of chronic fatigue syndrome, such as cancer treatment-related fatigue (“CTRF”). […] The animal's overall activity is measured using a running wheel or other method. In addition, the animal's day and night activity profiles are measured to determine when disrupted sleep architecture is present. This is characterized by disruption of the REM sleep as well as fatigue and cognitive dysfunction. The animal's percent daily weight change is also determined. The levels of cytokines such as IL-6 can be measured, since these are typically elevated with chemotherapy treatment. Results can be provided as percent change of total activity, percent change relative to light exposure, percent weight change over a defined time period (day, week), and combinations thereof.
The model can be created using any one of a number of different drugs, alone or in combination with additional therapy, such as one or more other chemotherapeutics or radiation. The in vitro and in vivo models described above can be used to identify compounds that effectively treat CTRF. In one embodiment, etoposide is administered in a dosage of 50 to 60 mg/kg to cause CTRF. In this study etoposide was administered by a single intraperitoneal injection on the first day of the study.
For the etoposide-induced fatigue model (FIGS. 2-7), BALB/c mice (obtained and housed as described above) were divided into groups of 10 animals per group: 1. control (untreated) mice, 2. mice treated with a single intraperitoneal dose of 60 mg/kg etoposide on day 1, and 3. mice treated with a single intraperitoneal dose of 60 mg/kg etoposide on day 1, followed by daily oral doses of pentoxifylline administered as a 1 mg/kg dose in the drinking water throughout the study. The animals were then assessed for their level of activity relative to time of day (day and night); total locomotor activity; blood chemistry (hemoglobin, red blood cells, white blood cells); over time in weeks.

IL-6 = IL-6 levels in etoposide-treated animals; type: in vivo, mice; settings: increasing etoposide dosing (0, 50 or 60 mg/kg); FIG. 3
Method: An animal model has been developed to screen for drugs which are efficacious in the treatment, alleviation and/or prevention of chronic fatigue syndrome, such as cancer treatment-related fatigue (“CTRF”). […] The animal's overall activity is measured using a running wheel or other method. In addition, the animal's day and night activity profiles are measured to determine when disrupted sleep architecture is present. This is characterized by disruption of the REM sleep as well as fatigue and cognitive dysfunction. The animal's percent daily weight change is also determined. The levels of cytokines such as IL-6 can be measured, since these are typically elevated with chemotherapy treatment. […]
For the etoposide-induced fatigue model (FIGS. 2-7), BALB/c mice (obtained and housed as described above) were divided into groups of 10 animals per group: 1. control (untreated) mice, […], […], followed by daily oral doses of pentoxifylline administered as a 1 mg/kg dose in the drinking water throughout the study. The animals were then assessed for their level of activity relative to time of day (day and night); total locomotor activity; blood chemistry (hemoglobin, red blood cells, white blood cells); over time in weeks.

[1] = etoposide, over time in days, FIG. 5

lipopolysaccharide [LPS]
total daily activity (counts/group) per day (female BALB/c mice): decreased activity indicative of fatigue

CC(=O)CCCCn1c(=O)c2c(ncn2C)n(C)c1=O [Pentoxifylline]
total locomotor activity (BALB/c mice; animals treated with 60 mg etoposide/kg, then daily oral pentoxifylline 1 mg/kg in drinking water, FIG. 6): improves activity | 12 hour dark activity over time (weeks) (BALB/c mice; etoposide treated followed by pentoxifylline 1 mg/kg daily oral vs etoposide treated and untreated control, FIG. 7A): significantly increase nocturnal activity | 12 hour light activity over time (weeks) (BALB/c mice; etoposide treated followed by pentoxifylline 1 mg/kg daily oral vs etoposide treated and untreated control, FIG. 7B): decrease activity when animals should be sleeping

COc1cc([C@@H]2c3cc4c(cc3[C@@H](O[C@@H]3O[C@@H]5CO[C@@H](C)O[C@H]5[C@H](O)[C@H]3O)[C@H]3COC(=O)[C@H]23)OCO4)cc(OC)c1O [etoposide]
total locomotor activity over time (weeks) (BALB/c mice; 60 mg etoposide/kg single intraperitoneal dose, FIG. 2): decreased total activity over time of treatment | fatigue (percent of baseline) over time (weeks) (BALB/c mice; 60 mg etoposide/kg, 12 hour dark cycle or 12 hour light cycle, FIG. 4): decreased activity | activity counts (shift of circadian rhythm) (BALB/c mice; [1]): decreased activity, which was more pronounced during the evening | percent daily weight change (shift of circadian rhythm) (BALB/c mice; [1]): weight loss | dependence of the observed results on anemia (blood chemistry) (BALB/c mice; mice treated with etoposide): independent of anemia | levels of IL-6 (IL-6): increased levels of IL-6

Reference: patent US20130245047A1, “COMPOSITIONS FOR TREATING CANCER-RELATED FATIGUE AND METHODS OF SCREENING THEREOF” (TENERA THERAPEUTICS, LLC, priority 2011, published 2013)
